Test results reported in US12016858B2, “Methods for the treatment of abnormal involuntary movement disorders” (AUSPEX PHARMACEUTICALS, INC., priority 2015, dated 2024).
Like-named read-outs stand apart in the source and are kept apart here.

How the values were obtained:
[1] = test system: subjects with chorea associated with HD
Description: First-HD was a randomized, double-blind, placebo-controlled, parallel-group study designed to evaluate the efficacy, safety, and tolerability of deutetrabenazine in subjects with chorea associated with HD. This trial was conducted in the United States and Canada, in collaboration with the Huntington Study Group.
Subjects in First-HD were treated with deutetrabenazine or placebo, starting at 6 mg once per day and titrating weekly to doses of up to 24 mg twice per day (48 mg total maximum daily dose). A total of 90 subjects (45 in each group) were enrolled for evaluation over 13 weeks. Subjects were individually titrated to an optimal dose over up to eight weeks, received maintenance therapy at the optimal dose for four weeks, and were taken off study medication in the final week of the trial.
The primary efficacy endpoint for the study was the change from baseline to maintenance therapy (average of Week 9 and Week 12 values) in the maximal chorea score of the UHDRS. The total maximal score, or TMC, is a clinician-based, quantitative assessment of chorea in seven body regions: face, mouth/tongue, trunk, and the four extremities, with higher scores representing more severe chorea.
The total motor score (TMS) of the UHDRS was prespecified as an additional efficacy endpoint in First-HD. The TMS assesses all the motor features of HD, including items addressing characteristic motor abnormalities other than chorea, such as dystonia, gait, parkinsonism, and postural instability.
The clinical relevance of the change in the TMC score was assessed with four prespecified secondary endpoints that assessed changes from baseline to end of treatment (Week 12). These secondary endpoints were tested in a hierarchical manner: • 1. Treatment success based on patient global impression of change (PGIC); • 2. Treatment success based on clinical global impression of change (CGIC); • 3. Physical Functioning Scale of the SF-36; and • 4. Balance, as assessed by the Berg Balance Test (BBT).
The PGIC and CGIC are single-item questionnaires that ask the subject and investigator, respectively, to assess a subject's overall HD symptoms at specific visits after initiating therapy. Both assessments use a 7-point Likert Scale, with responses ranging from Very Much Worse (−3) to Very Much Improved (+3) to assess overall response to therapy.
Adverse events (AE) and their potential association with treatment were also monitored. Categories of AEs of particular focus included those known to be associated with tetrabenazine use: • Psychiatric disorders: insomnia, depression/agitated depression, abnormal dreams, agitation, anxiety, suicidal ideation, compulsions, impulsive behavior, and sleep disorders; • Nervous system disorders: somnolence, dizziness, akathisia/restlessness, cognitive disorders, drooling, dyskinesia, migraine, headache, loss of consciousness, and syncope (fainting); • General disorders: irritability, fatigue, gait disturbance, chest pain, and hangover; and • Gastrointestinal disorders: diarrhea, dry mouth, constipation, nausea, upper abdominal pain, dyspepsia, frequent bowel movements, gastrointestinal pain, vomiting, dysphagia, flatulence, and salivary hypersecretion.
In addition to AE reporting, rating scales were used to monitor for potential subclinical toxicity due to excessive monoamine depletion. […] These scales applied in First-HD included the Hospital Anxiety and Depression Scale (HADS), the Columbia Suicide Severity Rating Scale (C-SSRS), the Swallowing Disturbance Questionnaire (SDQ), the Unified Parkinson's Disease Rating Scale (dysarthria item) (UPDRS [dysarthria]), the Barnes Akathisia Rating Scale (BARS), and the Epworth Sleepiness Scale (ESS). In addition, the UHDRS, which includes cognitive, behavioral, and functional measures, was performed at key visits.

[2] = Phase 1 pharmacokinetic comparison of deutetrabenazine and tetrabenazine; assay type: in vivo, healthy volunteer subjects; conditions: 24-mg dose of deutetrabenazine
Excerpt: The guidance for investigators on conversion of subjects from stable doses of tetrabenazine to deutetrabenazine in the ARC-HD Switch study was designed to minimize the risk that dose conversion would result in either loss of efficacy or increased adverse events. The conversion method applied was based on modeling and simulation of Phase 1 pharmacokinetic data for deutetrabenazine and tetrabenazine. The objective of the pharmacokinetic analysis was to identify an initial dosing regimen of deutetrabenazine predicted to provide exposure at steady state of the active α and β metabolites that was less than or equal to the predicted AUC at steady state of the active alpha and beta metabolites of tetrabenazine, but with a lower Cmax.
In a Phase 1 single-center, open-label, crossover clinical trial, each of 24 healthy volunteer subjects received single doses of 25 mg of tetrabenazine and 15 mg of deutetrabenazine. […]
Subjects in the Switch cohort completed a full screening evaluation. […] The investigator, in consultation with the subject and caregiver, determined when an adequate level of chorea control had been achieved. If a subject experienced a “clinically significant” adverse event attributable to deutetrabenazine, the investigator determined if a dose reduction or suspension was necessary.

[3] = Baseline to Maintenance Therapy, N = 45
[4] = baseline to maintenance therapy
[5] = much or very much improved, Week 12, N = 45

SMILES: [2H]C([2H])([2H])Oc1cc2c(cc1OC([2H])([2H])[2H])C1CC(=O)C(CC(C)C)CN1CC2 (stereo not drawn) [deutetrabenazine, (RR, SS)-1,3,4,6,7,11b-hexahydro-9,10-di(methoxy-d3)-3-(2-methylpropyl)-2H-benzo[a]quinolizin-2-one]
- Absolute Change in Total Maximal Chorea Score, Least Squares Mean (SD) ([1]; Baseline to Maintenance Therapy (mean of Week 9 and Week 12), N = 45): −4.4 (3.0)
- Percentage Change in Total Maximal Chorea Score, Least Squares Mean (SD) [1, 3]: −37 (25.7) %
- Total Motor Score change, Least Squares Mean (SD) [1, 3]: −7.4 (6.3)
- Absolute Change in Total Maximal Chorea Score, Difference in Means (DTBZ − Placebo and 95% CI) ([1]; Baseline to Maintenance Therapy, listed as DTBZ): −2.5 (−3.7, −1.3)
- Change in BBT Score, Difference in Means (DTBZ-Placebo) ([1]; Baseline to Week 12): 1.0
- Change in SF-36 Physical Functioning Score, Difference in Means (DTBZ − Placebo) and 95% CI ([1]; Baseline to Week 12): 4.3
- SF-36 physical functioning score compared with placebo-treated subjects ([1]; Baseline to Week 12): greater improvement in physical function
- Change in Berg Balance Test Score, Least Squares Mean ([1]; Baseline to Week 12, N = 45): 2.2
- Change in SF-36 Physical Functioning Score, Least Squares Mean (SD) ([1]; Baseline to Week 12, N = 45): 0.74
- Change in SF-36 Physical Functioning Score, Least Squares Mean (SD) ([1]; Baseline to Week 12, N = 45, listed as DTBZ): 0.74 (9.773)
- Change in SF-36 Physical Functioning Score, Difference in Means (DTBZ − Placebo) and 95% CI ([1]; Baseline to Week 12, listed as DTBZ): 4.34 (0.41, 8.27)
- CGIC Treatment Success, Difference in Percentages (DTBZ − Placebo) and 95% CI ([1]; End of Therapy): 29 (11.4, 46.4) %
- PGIC Treatment Success, Difference in Percentages (DTBZ − Placebo) and 95% CI ([1]; End of Therapy): 31 (12.4, 49.8) %
- Any Nervous System Disorders TEAE ([1]; N = 45): 8 (17.8) n (%)
- Any Psychiatric Disorders TEAE ([1]; N = 45): 8 (17.8) n (%)
- Any Serious TEAEs ([1]; N = 45): 1 (2.2) n (%)
- Any TEAE that led to Withdrawal from the Study ([1]; N = 45): 1 (2.2) n (%)
- Any TEAEs Resulting in Dose Reduction ([1]; N = 45): 3 (6.7) n (%)
- Any TEAEs Resulting in Dose Suspension ([1]; N = 45): 1 (2.2) n (%)
- Any Treatment-Emergent AEs (TEAEs) ([1]; N = 45): 60.0 n (%)
- TEAE Abdominal pain upper ([1]; N = 45): 1 (2.2) n (%)
- TEAE Abnormal Dreams ([1]; N = 45): 1 (2.2) n (%)
- TEAE Agitation ([1]; N = 45): 1 (2.2) n (%)
- TEAE Akathisia/Restlessness ([1]; N = 45): 1 (2.2) n (%)
- TEAE Anxiety ([1]; N = 45): 1 (2.2) n (%)
- TEAE Chest pain ([1]; N = 45): 1 (2.2) n (%)
- TEAE Cognitive Disorder ([1]; N = 45): 1 (2.2) n (%)
- TEAE Compulsions ([1]; N = 45): 0 n (%)
- TEAE Constipation ([1]; N = 45): 2 (4.4) n (%)
- TEAE Depression/Agitated Depression ([1]; N = 45): 2 (4.4) n (%)
- TEAE Diarrhea ([1]; N = 45): 4 (8.9) n (%)
- TEAE Dizziness ([1]; N = 45): 2 (4.4) n (%)
- TEAE Drooling ([1]; N = 45): 1 (2.2) n (%)
- TEAE Dry mouth ([1]; N = 45): 4 (8.9) n (%)
- TEAE Dyskinesia ([1]; N = 45): 1 (2.2) n (%)
- TEAE Dyspepsia ([1]; N = 45): 1 (2.2) n (%)
- TEAE Dysphagia ([1]; N = 45): 0 n (%)
- TEAE Fatigue ([1]; N = 45): 3 (6.7) n (%)
- TEAE Flatulence ([1]; N = 45): 0 n (%)
- TEAE Frequent bowel movements ([1]; N = 45): 1 (2.2) n (%)
- TEAE Gait disturbance ([1]; N = 45): 1 (2.2) n (%)
- TEAE Gastrointestinal pain ([1]; N = 45): 1 (2.2) n (%)
- TEAE Hangover ([1]; N = 45): 1 (2.2) n (%)
- TEAE Headache ([1]; N = 45): 0 n (%)
- TEAE Impulsive Behavior ([1]; N = 45): 0 n (%)
- TEAE Insomnia ([1]; N = 45): 3 (6.7) n (%)
- TEAE Irritability ([1]; N = 45): 3 (6.7) n (%)
- TEAE Loss of Consciousness ([1]; N = 45): 0 n (%)
- TEAE Migraine ([1]; N = 45): 1 (2.2) n (%)
- TEAE Nausea ([1]; N = 45): 1 (2.2) n (%)
- TEAE Salivary hypersecretion ([1]; N = 45): 0 n (%)
- TEAE Sleep disorder ([1]; N = 45): 0 n (%)
- TEAE Somnolence ([1]; N = 45): 11.1 n (%)
- TEAE Suicidal Ideation ([1]; N = 45): 1 (2.2) n (%)
- TEAE Syncope ([1]; N = 45): 0 n (%)
- TEAE Vomiting ([1]; N = 45): 0 n (%)
- Any Treatment-Emergent AEs (TEAEs) ([1]; N = 45, listed as DTBZ): 27 (60.0) n (%)
- TEAE Somnolence ([1]; N = 45, listed as DTBZ): 5 (11.1) n (%)
- Absolute Change in Total Maximal Chorea Score, Difference in Means (DTBZ − Placebo and 95% CI) [1, 4]: −2.5
- Percentage Change in Total Maximal Chorea Score, Difference in Means (DTBZ − Placebo and 95% CI) [1, 4]: −21 (−30.5, −11.1) %
- TMC improved [1, 4]: 37%
- Total Motor Score change, Difference in Means (DTBZ − Placebo) and 95% CI [1, 4]: −4.0 (−6.5, −1.5)
- improvement in the TMS compared with placebo [1, 4]: 4.0 units
- reduction in maximal chorea compared with placebo [1, 4]: 21 percentage points
- reduction on the TMC score compared with placebo [1, 4]: 2.5 units
- total maximal dystonia score improvement [1, 4]: 0.9 (SE 0.24) points
- UHDRS Behavioral Assessment (Part III) mean total behavior score compared with the placebo group ([1]; difference did not achieve statistical significance): improvement in the in the mean total behavior score
- AEs of parkinsonism or dysphagia ([1]; in vivo): no AEs of parkinsonism or dysphagia were reported
- balance (Berg Balance Test) at end of treatment ([1]; in vivo): did not worsen balance
- changes in the parkinsonism subscore (UHDRS motor) vs placebo ([1]; in vivo): no significant difference
- hypotension, dizziness, or orthostasis (vital signs) ([1]; in vivo): no evidence that hypotension, dizziness, or orthostasis was associated
- parkinsonism subscore of the UHDRS Motor Assessment (Part I) ([1]; in vivo): did not identify evidence of parkinsonism
- safety scales (HADS, C-SSRS, UPDRS dysarthria, BARS, ESS) ([1]; in vivo): did not cause depression, anxiety, suicidality, akathisia, somnolence, or difficulty speaking
- somnolence, drug-placebo difference ([1]; in vivo): 6.7%
- tolerability ([1]; in vivo): generally well tolerated
- Clinical Global Impression of Change: Treatment Success at the End of Therapy [1, 5]: 42%
- Patient Global Impression of Change: Treatment Success at the End of Therapy [1, 5]: 51%
- SF-36 physical functioning mean improvement over placebo ([1]; subjects with more severe chorea at baseline (TMC>12; n=49)): 7.1 units
- peak concentration (Cmax) vs 50 mg of tetrabenazine [2]: lower peak concentration (Cmax)
- systemic exposure (AUC) [2]: comparable systemic exposure (AUC) to 50 mg of tetrabenazine
